In US4154932A (priority 1977, dated 1979):

Columns and labels:
[1] = system: phenylquinone induced writhings; assay: animal or person; details: Mus musculus, sc, read-out: Agonist Activity, Phenylquinone Writhing ED50
Method: In vivo testing was conducted on many of the compounds of the present invention.

[2] = system: Straub Tail induced by oxymorphone; assay: Antagonism of oxymorphone-induced Straub Tail (antagonist activity); format: in vivo, mouse; details: Mus musculus, sc, mice; Table 1; oxymorphone 2 mg/kg, s.c.; read-out: Antagonist Activity, Oxymorphone Straub Tail ED50
Method: ^2 Antagonism of Straub Tail induced by oxymorphone (2 mg/kg, s.c.) i

SMILES | ED50 [1] | ED50 [2]
COc1ccc2c(c1)[C@]13CCN(C)[C@H](C2)[C@@H]1CCOC3 (racemic) [(±)-V, 3-Methoxy-17-methyl-6-oxamorphinan] | 1.32 mg/kg | > 20 mg/kg
COc1ccc2c(c1)[C@]13CCN[C@H](C2)[C@@H]1CCOC3 (racemic) [(±)-VIII, 3-methoxy-6-oxamorphinan] | ~40 mg/kg | > 40 mg/kg
CN1CCC23COCCC2C1Cc1ccc(O)cc13 (racemic) [(±)-VI] | 0.34 mg/kg | > 40 mg/kg
COc1ccc2c(c1)[C@]13CCN(CC4CC4)[C@H](C2)[C@@H]1CCOC3 (racemic) [(±)-X, 17-Cyclopropylmethyl-3-methoxy-6-oxamorphinan] | 0.38 mg/kg | 10 mg/kg
Oc1ccc2c(c1)[C@]13CCN(CC4CC4)[C@H](C2)[C@@H]1CCOC3 (racemic) [(±)-XI, 17-Cyclopropylmethyl-3-hydroxy-6-oxamorphinan] | 0.037 mg/kg | 0.76 mg/kg
COc1ccc2c(c1)[C@]13CCN(CC4CCC4)[C@H](C2)[C@@H]1CCOC3 (racemic) [(±)-XIII, 17-Cyclobutylmethyl-3-methoxy-6-oxamorphinan] | 0.38 mg/kg | ~15 mg/kg
